Experimental data published in article PMC4505863 (ACS Chemical Neuroscience, 2014).

How the values were obtained:
5-HT2A receptor [1] = target: T1, 5-HT2A receptor (Homo sapiens, UniProt P28223); experiment: h5-HT2A affinity, antagonist radioligand [3H]ketanserin; assay type: binding
5-HT2A receptor [2] = target: T1, 5-HT2A receptor; experiment: h5-HT2A affinity, agonist radioligand [125I]DOI; assay type: binding
human 5-HT2C receptor [3] = target: T2, human 5-HT2C receptor (Homo sapiens, UniProt P28335); experiment: h5-HT2C affinity, antagonist radioligand [3H]mesulergine; assay type: binding
T2 sequence (P28335 33-458): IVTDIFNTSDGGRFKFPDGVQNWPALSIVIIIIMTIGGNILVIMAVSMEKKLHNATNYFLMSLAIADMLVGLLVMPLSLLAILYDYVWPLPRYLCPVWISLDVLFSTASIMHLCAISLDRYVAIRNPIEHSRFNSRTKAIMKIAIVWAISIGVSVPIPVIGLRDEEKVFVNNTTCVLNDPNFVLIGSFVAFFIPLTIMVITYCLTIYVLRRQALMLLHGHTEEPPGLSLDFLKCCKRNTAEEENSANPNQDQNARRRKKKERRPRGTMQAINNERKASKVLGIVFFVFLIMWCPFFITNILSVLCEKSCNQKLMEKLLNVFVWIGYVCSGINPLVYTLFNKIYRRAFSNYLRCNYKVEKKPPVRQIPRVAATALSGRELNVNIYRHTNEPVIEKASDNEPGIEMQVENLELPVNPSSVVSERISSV

human 5-HT2C receptor [4] = target: T2, human 5-HT2C receptor; experiment: h5-HT2C affinity, agonist radioligand [125I]DOI; assay type: binding
5-HT2B = 5-HT2B (Homo sapiens, UniProt P41595); experiment: PDSP screening affinity 5-HT2B; assay type: binding
5-HT1A = target: T3, 5-HT1A (Homo sapiens, UniProt P08908); experiment: PDSP screening affinity 5-HT1A; assay type: binding; conditions: 5-HT1A affinity
T3 sequence (P08908 1-422): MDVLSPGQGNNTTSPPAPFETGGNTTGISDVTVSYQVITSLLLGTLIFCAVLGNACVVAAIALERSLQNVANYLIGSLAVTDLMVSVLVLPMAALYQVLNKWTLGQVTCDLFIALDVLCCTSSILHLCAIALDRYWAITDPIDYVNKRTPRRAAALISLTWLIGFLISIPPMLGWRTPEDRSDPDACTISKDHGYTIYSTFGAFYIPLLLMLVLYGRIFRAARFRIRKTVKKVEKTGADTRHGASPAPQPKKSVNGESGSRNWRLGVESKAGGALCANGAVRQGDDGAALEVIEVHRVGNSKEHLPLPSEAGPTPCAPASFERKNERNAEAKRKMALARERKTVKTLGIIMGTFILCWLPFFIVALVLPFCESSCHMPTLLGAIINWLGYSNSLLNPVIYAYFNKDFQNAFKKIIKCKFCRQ

5-HT1B = 5-HT1B (Homo sapiens, UniProt P28222); experiment: PDSP screening affinity 5-HT1B; assay type: binding
5-HT1D = 5-HT1D (Homo sapiens, UniProt P28221); experiment: PDSP screening affinity 5-HT1D; assay type: binding
5-ht1e = 5-ht1e (Homo sapiens, UniProt P28566); experiment: PDSP screening affinity 5-ht1e; assay type: binding
5-HT3 = target: T4, 5-HT3 (Homo sapiens, UniProt P46098); experiment: PDSP screening affinity 5-HT3; assay type: binding
T4 sequence (P46098 24-478): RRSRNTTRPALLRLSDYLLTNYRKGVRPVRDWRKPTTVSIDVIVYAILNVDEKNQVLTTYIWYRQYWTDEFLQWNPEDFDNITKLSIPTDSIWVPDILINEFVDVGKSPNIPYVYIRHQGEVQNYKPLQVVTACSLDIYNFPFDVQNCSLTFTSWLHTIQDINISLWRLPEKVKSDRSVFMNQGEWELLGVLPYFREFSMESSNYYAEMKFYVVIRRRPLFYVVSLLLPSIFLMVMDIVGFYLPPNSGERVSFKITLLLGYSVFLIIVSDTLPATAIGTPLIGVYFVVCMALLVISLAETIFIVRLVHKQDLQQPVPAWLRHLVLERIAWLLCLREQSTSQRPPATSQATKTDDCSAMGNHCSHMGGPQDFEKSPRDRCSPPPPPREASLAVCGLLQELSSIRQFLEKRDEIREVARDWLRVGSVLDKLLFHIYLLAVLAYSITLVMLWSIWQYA

5-ht5a = 5-ht5a (Homo sapiens, UniProt P47898); experiment: PDSP screening affinity 5-ht5a; assay type: binding
5-HT6 = 5-HT6 (Homo sapiens, UniProt P50406); experiment: PDSP screening affinity 5-HT6; assay type: binding; conditions: 5-HT6 affinity
5-HT7 = 5-HT7 (Homo sapiens, UniProt P34969); experiment: PDSP screening affinity 5-HT7; assay type: binding; conditions: 5-HT7 affinity
r5-HT2A = r5-HT2A (Rattus norvegicus, UniProt P14842); experiment: Ca2+ mobilization assay; assay type: cell-based
h5-HT2A = h5-HT2A (Homo sapiens, UniProt P28223); experiment: Ca2+ mobilization assay; assay type: cell-based; conditions: for Emax: HEK293, read-out: h5-HT2A Emax, percentage of the maximum response to 5-HT
h5-HT2B = h5-HT2B (Homo sapiens, UniProt P41595); experiment: Ca2+ mobilization assay; assay type: cell-based; conditions: for Emax: HEK293, read-out: h5-HT2B Emax
r5-HT2C = target: T5, r5-HT2C (Rattus norvegicus, UniProt P08909); experiment: Ca2+ mobilization assay; assay type: cell-based; conditions: for Emax: read-out: r5-HT2C Emax
T5 sequence (P08909 33-460): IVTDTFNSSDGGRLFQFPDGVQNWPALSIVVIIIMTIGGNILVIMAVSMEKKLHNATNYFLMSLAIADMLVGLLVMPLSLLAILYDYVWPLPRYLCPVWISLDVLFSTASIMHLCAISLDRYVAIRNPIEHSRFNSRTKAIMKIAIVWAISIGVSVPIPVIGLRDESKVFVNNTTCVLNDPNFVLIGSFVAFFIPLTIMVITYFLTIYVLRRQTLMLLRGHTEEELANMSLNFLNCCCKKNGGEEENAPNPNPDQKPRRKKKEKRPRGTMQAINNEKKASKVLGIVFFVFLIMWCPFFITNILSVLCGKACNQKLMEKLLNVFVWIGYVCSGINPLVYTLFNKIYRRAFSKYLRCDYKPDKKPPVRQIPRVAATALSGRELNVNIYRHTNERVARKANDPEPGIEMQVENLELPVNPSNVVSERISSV

h5-HT2C = target: T6, h5-HT2C (Homo sapiens, UniProt P28335); experiment: Ca2+ mobilization assay; assay type: cell-based; conditions: for Emax: HEK293, read-out: h5HT2C Emax
T6 sequence (P28335 33-458): T2 sequence (P28335 33-458)

Male C57BL/6J mice = experiment: Mouse head twitch response; conditions: SC, doses up to 30 mg/kg
[5] = r5-HT2A EC50, Ca2+ mobilization
[6] = h5-HT2B EC50, Ca2+ mobilization

r5-HT2A, sequence (P14842 whole entry): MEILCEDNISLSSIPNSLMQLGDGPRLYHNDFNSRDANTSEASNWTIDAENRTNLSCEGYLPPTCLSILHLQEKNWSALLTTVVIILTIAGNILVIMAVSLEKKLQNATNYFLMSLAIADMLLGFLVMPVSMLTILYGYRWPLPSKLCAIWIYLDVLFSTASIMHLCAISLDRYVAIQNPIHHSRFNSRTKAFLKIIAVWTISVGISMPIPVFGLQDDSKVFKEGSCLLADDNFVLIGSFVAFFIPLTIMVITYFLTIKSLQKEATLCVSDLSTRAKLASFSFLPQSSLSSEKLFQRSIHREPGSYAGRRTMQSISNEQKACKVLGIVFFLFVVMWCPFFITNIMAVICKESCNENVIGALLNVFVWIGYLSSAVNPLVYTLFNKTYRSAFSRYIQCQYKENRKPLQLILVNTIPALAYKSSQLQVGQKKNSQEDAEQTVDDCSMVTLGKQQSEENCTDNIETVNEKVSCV
h5-HT2B, sequence (P41595 whole entry): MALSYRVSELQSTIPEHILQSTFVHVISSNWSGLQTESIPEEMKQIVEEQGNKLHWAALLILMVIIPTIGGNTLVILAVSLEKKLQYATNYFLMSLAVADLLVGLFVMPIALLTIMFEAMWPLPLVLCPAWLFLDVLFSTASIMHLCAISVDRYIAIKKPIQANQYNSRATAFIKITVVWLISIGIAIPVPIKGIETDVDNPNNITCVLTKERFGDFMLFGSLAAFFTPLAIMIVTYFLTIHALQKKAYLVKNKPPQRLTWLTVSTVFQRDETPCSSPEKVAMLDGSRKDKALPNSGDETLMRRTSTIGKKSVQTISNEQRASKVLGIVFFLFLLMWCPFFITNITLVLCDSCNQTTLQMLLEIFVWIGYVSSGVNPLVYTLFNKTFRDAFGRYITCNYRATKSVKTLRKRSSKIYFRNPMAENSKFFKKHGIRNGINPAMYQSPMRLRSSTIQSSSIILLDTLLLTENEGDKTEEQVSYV
5-ht5a, sequence (P47898 whole entry): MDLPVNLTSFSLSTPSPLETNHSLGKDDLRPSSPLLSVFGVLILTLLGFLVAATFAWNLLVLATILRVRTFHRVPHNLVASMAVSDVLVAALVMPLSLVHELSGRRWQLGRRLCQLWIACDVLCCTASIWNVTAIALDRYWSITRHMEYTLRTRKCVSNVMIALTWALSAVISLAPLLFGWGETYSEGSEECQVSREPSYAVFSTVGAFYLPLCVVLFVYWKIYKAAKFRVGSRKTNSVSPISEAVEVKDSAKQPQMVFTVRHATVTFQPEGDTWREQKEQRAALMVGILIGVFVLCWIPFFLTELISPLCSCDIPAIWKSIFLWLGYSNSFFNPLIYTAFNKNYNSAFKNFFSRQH
T1 sequence (P28223 whole entry): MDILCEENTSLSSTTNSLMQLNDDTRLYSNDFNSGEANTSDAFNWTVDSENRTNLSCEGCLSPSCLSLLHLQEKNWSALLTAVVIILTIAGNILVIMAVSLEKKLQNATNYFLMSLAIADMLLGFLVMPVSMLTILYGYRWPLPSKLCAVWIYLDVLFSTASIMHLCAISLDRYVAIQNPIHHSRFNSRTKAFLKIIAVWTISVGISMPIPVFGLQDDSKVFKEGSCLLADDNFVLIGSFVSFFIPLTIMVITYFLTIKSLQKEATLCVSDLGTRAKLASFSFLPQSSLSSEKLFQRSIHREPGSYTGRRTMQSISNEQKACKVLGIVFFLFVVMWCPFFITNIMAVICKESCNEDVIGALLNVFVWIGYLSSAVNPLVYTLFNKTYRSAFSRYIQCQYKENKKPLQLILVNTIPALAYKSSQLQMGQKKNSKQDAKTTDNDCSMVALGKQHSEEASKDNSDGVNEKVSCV
h5-HT2A, sequence (P28223 whole entry): as above
5-HT1B, sequence (P28222 whole entry): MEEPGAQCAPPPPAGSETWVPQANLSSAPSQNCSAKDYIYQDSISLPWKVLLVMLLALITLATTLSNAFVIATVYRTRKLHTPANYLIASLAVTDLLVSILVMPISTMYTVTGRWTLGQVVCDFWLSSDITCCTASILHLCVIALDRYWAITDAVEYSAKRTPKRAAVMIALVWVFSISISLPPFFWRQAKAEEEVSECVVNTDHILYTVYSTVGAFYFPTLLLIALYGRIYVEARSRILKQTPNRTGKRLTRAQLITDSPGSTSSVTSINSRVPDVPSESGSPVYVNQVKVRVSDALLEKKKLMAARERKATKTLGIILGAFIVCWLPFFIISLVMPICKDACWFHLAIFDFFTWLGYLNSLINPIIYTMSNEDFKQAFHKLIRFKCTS
5-HT7, sequence (P34969 whole entry): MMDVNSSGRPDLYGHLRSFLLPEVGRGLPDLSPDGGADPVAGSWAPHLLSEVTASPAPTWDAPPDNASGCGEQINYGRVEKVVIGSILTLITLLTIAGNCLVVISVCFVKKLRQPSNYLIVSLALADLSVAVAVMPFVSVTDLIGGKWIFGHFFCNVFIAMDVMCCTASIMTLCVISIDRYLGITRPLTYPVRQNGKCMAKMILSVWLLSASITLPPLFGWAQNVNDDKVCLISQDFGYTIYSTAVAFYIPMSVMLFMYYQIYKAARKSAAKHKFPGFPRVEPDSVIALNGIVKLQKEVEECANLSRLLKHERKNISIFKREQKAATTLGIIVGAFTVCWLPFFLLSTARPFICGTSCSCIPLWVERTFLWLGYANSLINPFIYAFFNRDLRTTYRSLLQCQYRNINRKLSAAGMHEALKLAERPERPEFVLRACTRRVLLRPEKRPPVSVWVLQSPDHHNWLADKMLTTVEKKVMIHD
5-HT2B, sequence (P41595 whole entry): as the sequence (P41595 whole entry) above
5-HT1D, sequence (P28221 whole entry): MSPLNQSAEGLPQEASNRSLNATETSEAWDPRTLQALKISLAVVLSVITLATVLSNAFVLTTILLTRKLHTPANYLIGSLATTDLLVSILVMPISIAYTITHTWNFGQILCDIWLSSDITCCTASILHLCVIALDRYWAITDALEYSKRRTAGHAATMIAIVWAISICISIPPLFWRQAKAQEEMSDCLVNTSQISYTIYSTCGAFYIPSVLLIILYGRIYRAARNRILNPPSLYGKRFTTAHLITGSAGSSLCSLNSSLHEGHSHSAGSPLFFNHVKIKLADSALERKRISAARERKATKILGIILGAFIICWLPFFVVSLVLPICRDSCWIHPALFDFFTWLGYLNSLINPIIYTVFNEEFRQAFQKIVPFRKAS
5-HT6, sequence (P50406 whole entry): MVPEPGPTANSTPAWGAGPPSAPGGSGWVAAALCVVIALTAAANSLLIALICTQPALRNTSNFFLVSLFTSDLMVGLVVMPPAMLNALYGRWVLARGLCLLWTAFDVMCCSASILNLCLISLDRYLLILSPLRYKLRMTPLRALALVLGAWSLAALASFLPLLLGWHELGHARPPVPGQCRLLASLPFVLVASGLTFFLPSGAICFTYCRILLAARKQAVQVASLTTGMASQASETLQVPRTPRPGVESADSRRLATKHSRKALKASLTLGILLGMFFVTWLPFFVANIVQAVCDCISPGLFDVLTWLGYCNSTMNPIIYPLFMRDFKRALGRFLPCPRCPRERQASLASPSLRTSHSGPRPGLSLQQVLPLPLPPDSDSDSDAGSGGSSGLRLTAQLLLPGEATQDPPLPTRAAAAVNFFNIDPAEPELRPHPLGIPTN
5-ht1e, sequence (P28566 whole entry): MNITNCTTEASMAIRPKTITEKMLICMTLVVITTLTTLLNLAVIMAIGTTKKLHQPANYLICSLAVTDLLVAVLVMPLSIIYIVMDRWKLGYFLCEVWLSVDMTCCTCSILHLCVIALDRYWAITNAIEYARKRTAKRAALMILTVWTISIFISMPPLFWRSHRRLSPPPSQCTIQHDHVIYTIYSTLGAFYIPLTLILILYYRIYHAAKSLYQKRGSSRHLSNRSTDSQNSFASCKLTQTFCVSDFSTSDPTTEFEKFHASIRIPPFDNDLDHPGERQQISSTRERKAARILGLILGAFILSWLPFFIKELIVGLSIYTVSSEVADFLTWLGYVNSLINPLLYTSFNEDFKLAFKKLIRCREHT

Question: `COc1cc(CCNCc2ccc(Br)cc2)c(OC)cc1I` [Compound 4e, N-(4-Bromobenzyl)-2-(4-iodo-2,5-dimethoxyphenyl)ethan-1-amine] was tested. Which Ki (5-HT2A receptor [1]) did it give?
Answer: 52.5 nM

Question: What about the Ki (5-HT2A receptor [2]) of the same compound?
Answer: 3.24 nM

Question: What about the Ki (human 5-HT2C receptor [3]) of the same compound?
Answer: 45.7 nM

Question: What about the Ki (human 5-HT2C receptor [4]) of the same compound?
Answer: 3.31 nM

Question: What about the Ki (5-HT2B; 5-HT2B affinity) of the same compound?
Answer: 68 nM

Question: And the Ki (5-HT1A)?
Answer: 649 nM

Question: And the Ki (5-HT1B; 5-HT1B affinity)?
Answer: 5090 nM

Question: What about the Ki (5-HT1B; 5-HT1B pKi ± SEM) of the same compound?
Answer: 6030 nM

Question: And the Ki (5-HT1D)?
Answer: 311 nM

Question: What about the Ki (5-ht1e) of the same compound?
Answer: > 10000 nM

Question: What about the Ki (5-HT3) of the same compound?
Answer: 2460 nM

Question: And the Ki (5-ht5a; 5-ht5a affinity)?
Answer: 1850 nM

Question: What about the Ki (5-HT6) of the same compound?
Answer: 350 nM

Question: And the Ki (5-HT7)?
Answer: 641 nM

Question: What about the EC50 (r5-HT2A; [5]) of the same compound?
Answer: 150 nM

Question: What about the Emax (r5-HT2A; read-out: r5-HT2A Emax, percentage of the maximum response to 5-HT) of the same compound?
Answer: 67.3 ± 0.9%

Question: And the EC50 (h5-HT2A)?
Answer: 170 nM

Question: What about the Emax (h5-HT2A) of the same compound?
Answer: 88 ± 1.4%

Question: What about the Emax (h5-HT2B) of the same compound?
Answer: 90 ± 2%

Question: What about the EC50 (h5-HT2B; [6]) of the same compound?
Answer: 610 nM

Question: What about the EC50 (r5-HT2C; r5-HT2C EC50, Ca2+ mobilization) of the same compound?
Answer: 290 nM

Question: And the Emax (r5-HT2C)?
Answer: 105 ± 2%

Question: What about the Emax (h5-HT2C) of the same compound?
Answer: 77 ± 5%

Question: And the EC50 (h5-HT2C; h5HT2C EC50, Ca2+ mobilization)?
Answer: 200 nM

Question: And the EC50 (h5-HT2C; h5HT2C pEC50 ± SEM, Ca2+ mobilization)?
Answer: 219 nM

Question: What about the “activity in the HTR assay (active / inactive)” value (Male C57BL/6J mice) of the same compound?
Answer: None of the phenethylamines or tryptamines with 4-substituted N-benzyl groups, 4b, 4e, 5c, or 5f, was active

Question: For `COc1cc(CCNCc2cccc(Br)c2)c(OC)cc1I` [Compound 4d, N-(3-Bromobenzyl)-2-(4-iodo-2,5-dimethoxyphenyl)ethan-1-amine], which Ki (5-HT2A receptor [1]) is on record?
Answer: 3.98 nM

Question: And the Ki (5-HT2A receptor [2])?
Answer: 0.57 nM

Question: What about the Ki (human 5-HT2C receptor [3]) of the same compound?
Answer: 7.59 nM

Question: And the Ki (human 5-HT2C receptor [4])?
Answer: 1.62 nM

Question: What about the Ki (5-HT2B; 5-HT2B pKi ± SEM) of the same compound?
Answer: 12.9 nM

Question: What about the Ki (5-HT1A) of the same compound?
Answer: 670 nM

Question: What about the Ki (5-HT1B; 5-HT1B affinity) of the same compound?
Answer: 1570 nM

Question: And the Ki (5-HT1D)?
Answer: 162 nM

Question: And the Ki (5-ht1e)?
Answer: 792 nM

Question: And the Ki (5-HT3)?
Answer: > 10000 nM

Question: And the Ki (5-ht5a; 5-ht5a affinity)?
Answer: 1010 nM

Question: What about the Ki (5-ht5a; 5-ht5a pKi ± SEM) of the same compound?
Answer: 1000 nM

Question: And the Ki (5-HT6)?
Answer: 175 nM

Question: And the Ki (5-HT7)?
Answer: 355 nM

Question: And the “r5-HT2A Emax” value (r5-HT2A; percentage of the maximum response to 5-HT)?
Answer: 68.5 ± 0.9%

Question: And the EC50 (r5-HT2A; [5])?
Answer: 14 nM

Question: And the EC50 (r5-HT2A; r5-HT2A pEC50 ± SEM, Ca2+ mobilization)?
Answer: 15.8 nM

Question: And the EC50 (h5-HT2A)?
Answer: 17 nM

Question: And the Emax (h5-HT2A)?
Answer: 87.5 ± 1.3%

Question: And the Emax (h5-HT2B)?
Answer: 90 ± 2%

Question: And the EC50 (h5-HT2B; [6])?
Answer: 85 nM

Question: What about the EC50 (h5-HT2B; h5-HT2B pEC50 ± SEM, Ca2+ mobilization, NA = not active, Emax ≤ 15%) of the same compound?
Answer: 89.1 nM

Question: What about the EC50 (r5-HT2C; r5-HT2C pEC50 ± SEM, Ca2+ mobilization) of the same compound?
Answer: 36.3 nM

Question: And the Emax (r5-HT2C)?
Answer: 101 ± 2%

Question: And the Emax (h5-HT2C)?
Answer: 74 ± 5%

Question: And the “activity in the HTR assay (active / inactive)” value (Male C57BL/6J mice)?
Answer: inactive
